Results: ChEMBL document CHEMBL6071133, “Discovery of novel penetrating peptides able to target human leukemia and lymphoma for enhanced PROTAC delivery” (Eur J Med Chem, 2024)
Square brackets hold non-standard residues; d marks the D form. Peptide text beside a SMILES is read from it. Bta = N[C@@H](Cc1csc2ccccc12)C(=O)O

How the values were obtained:
Format in all cases: ADME, cell-based
[1] = Drug uptake in human KU812 cells assessed as membrane permeability at 5 umol/L incubated for 2 hrs by flow cytometry relative to C9C; settings: ku812, 2 h, 5 µM, dose 5 µmol/L
[2] = Drug uptake in human K562 cells assessed as membrane permeability at 5 umol/L incubated for 2 hrs by flow cytometry relative to C9C; settings: k562, 2 h, 5 µM, dose 5 µmol/L
[3] = Drug uptake in human KU812 cells assessed as membrane penetration by measuring increase in fluorescence intensity at 5 umol/L incubated for 2 hrs by flow cytometry relative to C9C; settings: ku812, 2 h, 5 µM, dose 5 µmol/L
[4] = Drug uptake in human K562 cells assessed as membrane penetration by measuring increase in fluorescence intensity at 5 umol/L incubated for 2 hrs by flow cytometry relative to C9C; settings: k562, 2 h, 5 µM, dose 5 µmol/L
[5] = Drug uptake in human CCRF-CEM cells assessed as membrane penetration by measuring increase in fluorescence intensity at 5 umol/L incubated for 2 hrs by flow cytometry relative to C9C; settings: 5 µM, dose 5 µmol/L

For `CC(C)C[C@H](NC(=O)[C@H](Cc1csc2ccccc12)NC(=O)[C@H](Cc1ccc(O)cc1)NC(=O)[C@H](Cc1ccccc1)NC(=O)[C@H](CCCNC(=N)N)NC(=O)[C@@H](N)CS)C(=O)N[C@@H](CCCNC(=N)N)C(=O)N[C@@H](CO)C(=O)N[C@@H](CS)C(=O)O` (H-CRFY[Bta]LRSC-OH), the Drug uptake [1] was 65% and the Drug uptake [2] was 65%.

For `CC(C)C[C@@H]1NC(=O)[C@H](Cc2csc3ccccc23)NC(=O)[C@H](Cc2ccc(O)cc2)NC(=O)[C@H](Cc2ccccc2)NC(=O)[C@H](CCCNC(=N)N)NC(=O)[C@H](CCCCN)NC(=O)[C@H](CCC(=O)O)NC(=O)[C@H](CO)NC(=O)[C@H](CCCNC(=N)N)NC1=O` (cyclo([Bta]LRSEKRFY)), the “fold change (FC)” value [3] was 2.69 and the “fold change (FC)” value [4] was 5.04.

With `CC(C)C[C@@H]1NC(=O)[C@H](Cc2c[nH]c3ccccc23)NC(=O)[C@H](Cc2ccccc2)NC(=O)[C@H](Cc2ccccc2)NC(=O)CNC(=O)[C@H](CCCCN)NC(=O)[C@H](CCC(=O)O)NC(=O)[C@H](CO)NC(=O)[C@H](CCCNC(=N)N)NC1=O` (cyclo(EKGFFWLRS)) the “fold change (FC)” value [4] was 2.8.

In the case of `CC(C)C[C@@H]1NC(=O)[C@H](Cc2c[nH]c3ccccc23)NC(=O)[C@H](Cc2ccc(O)cc2)NC(=O)[C@H](Cc2ccccc2)NC(=O)CNC(=O)[C@H](CCCCN)NC(=O)[C@H](CC(=O)O)NC(=O)[C@H](CO)NC(=O)[C@H](CCCNC(=N)N)NC1=O` (cyclo(DKGFYWLRS)), the “fold change (FC)” value [5] is reported as 3.1.
